The target in the assay is T1, FLAG-tagged BCL6 (Homo sapiens, UniProt P41182+Q09472+Q92793).
T1 construct: endogenous in cells; host or cells: SUDHL5, CRISPR genomic knock-in at the BCL6 stop codon
The assay can be described thus: FLAG IP-MS in FLAG-tagged BCL6 knock-in SUDHL5. The note with it: FLAG-BCL6 SUDHL5, 1 nM, 2 h. The class given is cell-based. The method, then:
50 million FLAG-BCL6 knock-in SUDHL5 cells were treated compound or DMSO (0.1%) at indicated doses for 2 hours. Cells were lysed in NE10 buffer (20 mM HEPES (pH 7.5), 10 mM KCl, 1 mM MgCl2, 0.1% Triton X-100 (v/v), protease inhibitors (Roche), 15 mM ß-mercaptoethanol), dounced 15 times and pelleted 5 min at 500 g. Nuclei were washed in NE10 buffer and then digested with 250 units benzonase (Millipore) for 30 min rotating at 25°C. Nuclei were resuspended in NE150 buffer (NE10 supplemented with 150mM NaCl) and incubated for 20 min. Lysates were pelleted at 16,000 g for 20 min at 4°C and supernatants were immunoprecipitated by incubating with 2.5 μg FLAG M2 antibody (F1804, Millipore-Sigma) or 2.5 μg p300 (A300–358A, Bethyl Laboratories) antibody with Dynabeads Protein G (Thermo Fisher) overnight at 4°C. The IP fraction was recovered by magnetic separation followed by three washes with NE10 buffer containing 150mM–300mM NaCl but without Triton-X. For mass spectrometry analysis, the IP was then eluted from the beads with Ammonium Hydroxide, pH 11–12; 3% v/v. […]
The reconstituted desalted peptides were then analyzed using a nanoElute 2 UHPLC (Bruker Daltonics, Bremen, Germany) coupled to a timsTOF HT (Bruker Daltonics, Bremen, Germany) via a CaptiveSpray nano-electrospray source. […]

T1 sequence (Q92793 2-2442 limits assumed, other chains not shown): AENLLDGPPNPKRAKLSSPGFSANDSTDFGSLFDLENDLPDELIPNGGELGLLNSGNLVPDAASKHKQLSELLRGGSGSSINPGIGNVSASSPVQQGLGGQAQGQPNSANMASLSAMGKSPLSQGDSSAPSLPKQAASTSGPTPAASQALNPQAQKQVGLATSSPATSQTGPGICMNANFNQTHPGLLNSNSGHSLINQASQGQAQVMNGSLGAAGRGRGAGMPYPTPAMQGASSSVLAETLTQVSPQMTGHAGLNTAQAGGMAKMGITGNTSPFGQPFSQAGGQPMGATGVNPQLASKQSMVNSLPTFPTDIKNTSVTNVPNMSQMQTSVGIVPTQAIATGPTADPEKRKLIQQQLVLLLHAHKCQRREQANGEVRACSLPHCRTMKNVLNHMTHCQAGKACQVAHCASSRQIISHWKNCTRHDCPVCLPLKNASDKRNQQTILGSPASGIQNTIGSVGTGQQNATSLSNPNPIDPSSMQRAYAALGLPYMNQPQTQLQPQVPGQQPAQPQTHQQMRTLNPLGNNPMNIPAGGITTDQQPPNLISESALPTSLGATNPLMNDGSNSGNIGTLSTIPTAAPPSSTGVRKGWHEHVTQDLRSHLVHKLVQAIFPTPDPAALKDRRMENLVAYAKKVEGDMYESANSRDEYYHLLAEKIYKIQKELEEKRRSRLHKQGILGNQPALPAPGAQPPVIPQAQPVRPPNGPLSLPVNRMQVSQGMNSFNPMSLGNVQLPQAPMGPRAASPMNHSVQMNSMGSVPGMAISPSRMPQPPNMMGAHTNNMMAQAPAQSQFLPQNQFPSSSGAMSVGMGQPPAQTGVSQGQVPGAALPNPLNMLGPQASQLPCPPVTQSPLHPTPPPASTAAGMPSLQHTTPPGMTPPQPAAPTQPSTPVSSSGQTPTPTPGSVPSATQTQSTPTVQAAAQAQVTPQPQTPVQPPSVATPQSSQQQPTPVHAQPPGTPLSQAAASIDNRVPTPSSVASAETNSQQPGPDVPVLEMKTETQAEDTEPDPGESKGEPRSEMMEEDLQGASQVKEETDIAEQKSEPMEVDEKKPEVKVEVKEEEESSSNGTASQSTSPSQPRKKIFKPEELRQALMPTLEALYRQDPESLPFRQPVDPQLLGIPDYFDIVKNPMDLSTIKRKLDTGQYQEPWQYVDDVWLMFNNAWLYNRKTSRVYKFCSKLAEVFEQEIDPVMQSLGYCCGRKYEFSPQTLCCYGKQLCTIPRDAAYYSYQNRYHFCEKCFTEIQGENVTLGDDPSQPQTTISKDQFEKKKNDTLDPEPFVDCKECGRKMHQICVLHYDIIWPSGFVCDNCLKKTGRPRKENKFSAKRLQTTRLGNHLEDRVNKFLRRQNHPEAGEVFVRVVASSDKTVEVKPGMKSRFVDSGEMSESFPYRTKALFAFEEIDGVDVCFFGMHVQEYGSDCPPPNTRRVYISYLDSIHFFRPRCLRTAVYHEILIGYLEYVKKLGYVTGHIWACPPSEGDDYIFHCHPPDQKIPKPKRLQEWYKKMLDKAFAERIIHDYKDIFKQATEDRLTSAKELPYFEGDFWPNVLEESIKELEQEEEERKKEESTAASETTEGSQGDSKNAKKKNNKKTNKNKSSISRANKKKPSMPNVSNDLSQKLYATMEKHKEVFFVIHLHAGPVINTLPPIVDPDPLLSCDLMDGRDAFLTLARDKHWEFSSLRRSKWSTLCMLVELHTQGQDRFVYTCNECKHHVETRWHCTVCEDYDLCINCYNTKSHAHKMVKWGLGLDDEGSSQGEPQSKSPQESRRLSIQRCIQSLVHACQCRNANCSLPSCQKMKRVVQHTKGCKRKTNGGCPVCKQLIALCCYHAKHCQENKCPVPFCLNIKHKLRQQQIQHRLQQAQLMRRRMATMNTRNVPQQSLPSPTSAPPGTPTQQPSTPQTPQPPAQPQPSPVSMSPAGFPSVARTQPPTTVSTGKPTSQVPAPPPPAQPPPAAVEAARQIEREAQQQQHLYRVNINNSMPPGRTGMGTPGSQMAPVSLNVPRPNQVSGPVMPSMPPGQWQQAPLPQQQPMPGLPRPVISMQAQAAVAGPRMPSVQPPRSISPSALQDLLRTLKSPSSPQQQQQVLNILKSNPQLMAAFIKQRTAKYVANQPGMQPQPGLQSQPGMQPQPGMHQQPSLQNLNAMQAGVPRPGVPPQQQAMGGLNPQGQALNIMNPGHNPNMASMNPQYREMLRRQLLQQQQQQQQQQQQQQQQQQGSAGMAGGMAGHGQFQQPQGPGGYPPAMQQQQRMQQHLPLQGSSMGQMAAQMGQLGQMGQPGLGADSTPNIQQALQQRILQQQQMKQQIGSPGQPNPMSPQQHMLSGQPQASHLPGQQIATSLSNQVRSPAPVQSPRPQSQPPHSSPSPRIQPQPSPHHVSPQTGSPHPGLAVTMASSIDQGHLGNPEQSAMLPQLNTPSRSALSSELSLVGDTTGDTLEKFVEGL
T1 sequence (Q09472 2-2414 limits assumed, other chains not shown): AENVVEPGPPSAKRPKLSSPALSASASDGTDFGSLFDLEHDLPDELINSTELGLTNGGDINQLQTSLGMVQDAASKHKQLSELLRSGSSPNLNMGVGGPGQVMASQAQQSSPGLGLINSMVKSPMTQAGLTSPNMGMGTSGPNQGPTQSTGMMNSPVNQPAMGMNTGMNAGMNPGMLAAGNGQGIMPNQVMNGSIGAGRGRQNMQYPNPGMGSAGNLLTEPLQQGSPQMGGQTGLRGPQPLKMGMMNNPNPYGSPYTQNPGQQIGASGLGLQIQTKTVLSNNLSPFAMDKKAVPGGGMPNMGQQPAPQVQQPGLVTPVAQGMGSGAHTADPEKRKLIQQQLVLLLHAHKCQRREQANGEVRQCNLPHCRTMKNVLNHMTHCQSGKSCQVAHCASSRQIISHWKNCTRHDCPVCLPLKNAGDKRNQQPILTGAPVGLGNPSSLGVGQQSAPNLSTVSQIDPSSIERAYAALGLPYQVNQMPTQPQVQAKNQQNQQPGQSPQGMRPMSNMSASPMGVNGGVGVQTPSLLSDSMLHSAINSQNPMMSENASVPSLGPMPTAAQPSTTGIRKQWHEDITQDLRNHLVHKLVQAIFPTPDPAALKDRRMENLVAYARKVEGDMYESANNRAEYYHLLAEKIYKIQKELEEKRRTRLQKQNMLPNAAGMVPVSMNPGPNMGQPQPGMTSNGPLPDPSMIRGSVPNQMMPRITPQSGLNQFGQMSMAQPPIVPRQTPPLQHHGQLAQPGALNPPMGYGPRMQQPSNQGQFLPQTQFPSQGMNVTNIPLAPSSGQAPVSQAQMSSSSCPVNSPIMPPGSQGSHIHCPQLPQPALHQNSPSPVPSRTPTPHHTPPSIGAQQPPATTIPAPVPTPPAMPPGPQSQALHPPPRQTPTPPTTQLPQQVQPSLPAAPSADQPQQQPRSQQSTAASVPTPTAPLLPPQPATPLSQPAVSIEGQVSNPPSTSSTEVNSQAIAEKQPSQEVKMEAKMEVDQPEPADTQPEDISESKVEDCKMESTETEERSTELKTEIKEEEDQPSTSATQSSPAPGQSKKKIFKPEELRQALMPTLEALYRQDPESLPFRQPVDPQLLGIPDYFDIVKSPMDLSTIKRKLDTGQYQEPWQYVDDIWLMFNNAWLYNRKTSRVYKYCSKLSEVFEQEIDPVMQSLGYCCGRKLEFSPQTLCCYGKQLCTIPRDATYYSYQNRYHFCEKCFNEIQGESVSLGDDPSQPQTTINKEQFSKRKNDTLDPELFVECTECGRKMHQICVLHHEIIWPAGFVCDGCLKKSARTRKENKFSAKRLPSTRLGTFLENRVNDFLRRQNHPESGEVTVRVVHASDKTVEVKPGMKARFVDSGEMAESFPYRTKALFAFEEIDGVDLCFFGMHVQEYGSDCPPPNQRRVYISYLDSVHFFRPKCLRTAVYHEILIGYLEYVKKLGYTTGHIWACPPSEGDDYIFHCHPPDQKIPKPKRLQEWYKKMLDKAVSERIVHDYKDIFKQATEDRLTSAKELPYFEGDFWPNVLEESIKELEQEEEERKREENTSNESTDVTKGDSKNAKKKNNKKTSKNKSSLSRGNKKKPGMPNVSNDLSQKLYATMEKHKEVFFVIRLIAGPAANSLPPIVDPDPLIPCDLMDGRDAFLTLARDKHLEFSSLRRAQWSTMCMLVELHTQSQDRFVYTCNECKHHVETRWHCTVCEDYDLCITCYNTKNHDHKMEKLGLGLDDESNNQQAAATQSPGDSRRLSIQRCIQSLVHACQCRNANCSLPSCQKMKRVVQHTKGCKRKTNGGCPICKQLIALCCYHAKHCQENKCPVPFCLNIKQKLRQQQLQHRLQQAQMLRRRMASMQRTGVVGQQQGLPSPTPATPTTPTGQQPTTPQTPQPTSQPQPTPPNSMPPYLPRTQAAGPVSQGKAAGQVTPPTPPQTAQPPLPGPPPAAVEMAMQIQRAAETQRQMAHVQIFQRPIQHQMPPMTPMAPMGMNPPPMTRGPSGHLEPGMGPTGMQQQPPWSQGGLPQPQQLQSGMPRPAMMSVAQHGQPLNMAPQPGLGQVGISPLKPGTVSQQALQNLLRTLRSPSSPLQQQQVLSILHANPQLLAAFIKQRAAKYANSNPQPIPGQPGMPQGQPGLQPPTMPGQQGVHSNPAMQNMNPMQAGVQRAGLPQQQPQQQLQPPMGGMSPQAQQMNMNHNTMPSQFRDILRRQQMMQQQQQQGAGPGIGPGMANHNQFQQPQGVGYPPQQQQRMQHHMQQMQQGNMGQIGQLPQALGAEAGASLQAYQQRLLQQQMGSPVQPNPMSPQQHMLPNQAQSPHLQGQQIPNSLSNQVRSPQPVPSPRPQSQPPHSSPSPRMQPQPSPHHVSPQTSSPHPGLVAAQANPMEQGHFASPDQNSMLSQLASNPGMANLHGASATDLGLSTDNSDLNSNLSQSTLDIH

On to `CNC(=O)COc1cc2cc(Nc3nc(N4CCC(C(=O)N5CCN(CCC(=O)N6CCC(n7nc(N8CCCc9cc(-c%10cnn(C)c%10)c(C(F)F)cc98)c8c7CCN(C(=O)NC)C8)CC6)CC5)CC4)ncc3Cl)cc(OC)c2n(C)c1=O` [TCIP3], for which, under “vs DMSO”, the “enrichment of CBP in FLAG-BCL6 IP, log2(fold change)” value is recorded as 3.7. Also, the “enrichment of p300 in FLAG-BCL6 IP, log2(fold change)” value (no peptides in DMSO, imputed) is reported as 3.7.
